A value given as a limit tells only on which side of the number the result lay.

This passage reports IC50 results from US7795267B2, “Bicyclic piperazine compound having TGR23 antagonistic activity” (Takeda Pharmaceutical Company Limited, priority 2003, dated 2010).

Assay [1] relates to human colon cancer cell strain LS 174T. As to the kind of experiment: Inhibition of DNA synthesis by cancer cells ([methyl-3H]-thymidine uptake under TGR23 ligand stimulation). It is filed as cell-based. To be noted: LS174T, LS 174T cells, 10 nM TGR23 ligand, read-out: IC50 value of the test compound in DNA synthesis. As for the experimental part: The cells of human colon cancer cell strain LS 174T (ATCC number: CL-188) were inoculated to a 96-well plate to a concentration of 20,000 cells per well, and then incubated in an EMEM medium (Nikken Biology and Medical Research Center) containing 0.05% bovine serum albumin not containing fatty acids (Sigma Chemical Co.) for 24 hours. After the 15-minute preincubation of these cells with the test compound, the cells were incubated in the presence of 10 nM of a TGR23 ligand [a human TGR23-2 ligand (1-20) represented by SEQ ID NO: 23 in WO 03/25179 was used] for 18 hours. Next, the cells were incubated in the presence of 0.25 μCi of [methyl-^3H]-thymidine (Amersham Biosciences KK) per well for 6 hours. The [methyl-^3H]-thymidine incorporated into the cancer cell DNA was measured in the following manner. After discarding the culture supernatant, 100 μL of ice-cold 10% trichloroacetic acid per well was added to the cells having taken up [methyl-^3H]-thymidine, and the cells were maintained on ice for 15 minutes. After discarding the trichloroacetic acid solution, 300 μL of a 0.2 N sodium hydroxide solution per well was added to the immobilized cells, and then the cells were kept warm overnight at 37° C. The amount of [methyl-^3H]-thymidine in the cell lysate was measured with a liquid scintillation counter.
The rate of DNA synthesis inhibition by the test compound was defined as the relative value obtained by subtracting the amount of [methyl-^3H]-thymidine uptake determined without stimulation from the uptake amount determined in the presence of the test compound and 10 nM of the TGR23 ligand, when the value obtained by subtracting the amount of [methyl-^3H]-thymidine uptake determined without stimulation from the uptake amount determined in the presence of the stimulation by 10 nM of the TGR23 ligand was taken as 100%. The IC50 value of the test compound in DNA synthesis was defined as the concentration of the test compound required to achieve 50% of the DNA synthesis inhibition rate.

Assay [2] has the same test system. As to the kind of experiment: Cell growth inhibition (MTT method, TGR23 ligand stimulation). The format is cell-based. To be noted: LS174T, LS 174T cells, 10 nM TGR23 ligand, 24 hours, read-out: IC50 value of the test compound for cell growth. As for the experimental part: The cells of human colon cancer cell strain LS 174T (ATCC number: CL-188) were inoculated in a 96-well plate to a concentration of 40,000 cells per well, and then the cells were incubated for 24 hours in an EMEM medium containing 0.05% bovine serum albumin not containing fatty acids. After a 15-minute pretreatment of these cells with the test compound, LS 174T cells were incubated for 24 hours in the presence of 10 nM of a TGR23 ligand [a human TGR23-2 ligand (1-20) represented by SEQ ID NO: 23 in WO 03/25179 was used]. Cell growth was evaluated by the MTT method. Cells were lysed by keeping them warm in an MTT solution (3-(4,5-dimethylthiazol-2-yl)-2,5-diphenyl tetrazolium bromide) at a final concentration of 0.5 mg/mL at 37° C. for 4 hours, and then in a 5% SDS solution at 37° C. for 24 hours. The absorbance of the cell lysate was measured using a 96-well plate reader. […]
The cell growth inhibitory rate of the test compound was defined as the relative value obtained by subtracting the absorbance change determined without stimulation from the absorbance change determined in the presence of the test compound and 10 nM of the TGR23 ligand, when the value obtained by subtracting the absorbance change determined without stimulation from the absorbance change determined in the presence of stimulation by 10 nM of the TGR23 ligand was taken as 100%. […]

As for `O=C(NCc1cccc(F)c1)N1CCN2C(=O)OC(c3ccccc3)(c3ccccc3)C2C1` (centres unmarked) [Example 28, N-[(3-Fluorophenyl)methyl]-tetrahydro-3-oxo-1,1-diphenyl-3H-oxazolo[3,4-a]pyrazine-7(1H)-carboxamide], the concentration for half-maximal inhibition (IC50) in assay [1] is at most 1000 nM.

With `O=C(CCCN1CC=CCC1)N1CCN2C(=O)OC(c3ccccc3)(c3ccccc3)C2C1` (centres unmarked) [Example 138, 7-[4-(3,6-Dihydropyridin-1(2H)-yl)-1-oxobutyl]-hexahydro-1,1-diphenyl-3H-oxazolo[3,4-a]pyrazin-7(1H)-3-one], in assay [1], the half-inhibitory concentration (IC50) was at most 1000 nM.

For `O=C(NCCN1CCCCCC1)N1CCN2C(=O)OC(c3ccccc3)(c3ccccc3)C2C1` (centres unmarked) [Example 147, N-[2-(Hexahydro-1H-azepin-1-yl)ethyl]tetrahydro-3-oxo-1,1-diphenyl-3H-oxazolo[3,4-a]pyrazine-7(1H)-carboxamide], in assay [1], the IC50 was at most 1000 nM.

On to `O=C(NCCN1CC=CCC1)N1CCN2C(=O)OC(c3ccccc3)(c3ccccc3)C2C1` (single isomer, unassigned; (+)) [Example 201, (+)-N-[2-(3,6-Dihydropyridin-1(2H)-yl)ethyl]-tetrahydro-3-oxo-1,1-diphenyl-3H-oxazolo[3,4-a]pyrazine-7(1H)-carboxamide], for which the IC50 in assay [1] was at most 1000 nM.

For `O=C(NCc1ccccc1)N1CCN2C(=O)OC(c3ccccc3)(c3ccccc3)C2C1` (centres unmarked) [Example 17, Tetrahydro-3-oxo-1,1-diphenyl-N-(phenylmethyl)-3H-oxazolo[3,4-a]pyrazine-7(1H)-carboxamide], the IC50 in assay [1] and in assay [2] was at most 1000 nM in each case.

As to `O=C(NCc1ccsc1)N1CCN2C(=O)OC(c3ccccc3)(c3ccccc3)C2C1` (centres unmarked) [Example 96, Tetrahydro-3-oxo-1,1-diphenyl-N-[(3-thienyl)methyl]-3H-oxazolo[3,4-a]pyrazine-7(1H)-carboxamide], the half-maximal inhibitory concentration (IC50) in assay [1] was at most 1000 nM.

In the case of `O=C(NCc1ccc(F)cc1)N1CCN2C(=O)OC(c3ccccc3)(c3ccccc3)C2C1` (centres unmarked) [Example 25, N-[(4-Fluorophenyl)methyl]-tetrahydro-3-oxo-1,1-diphenyl-3H-oxazolo[3,4-a]pyrazine-7(1H)-carboxamide], the IC50 in assay [1] and in assay [2] was at most 1000 nM in each case.

With `O=C(NCCN1CC=CCC1)N1CCN2C(=O)OC(c3ccccc3)(c3ccccc3)C2C1` (centres unmarked) [Example 85, N-[2-(3,6-Dihydropyridin-1(2H)-yl)ethyl]-tetrahydro-3-oxo-1,1-diphenyl-3H-oxazolo[3,4-a]pyrazine-7(1H)-carboxamide], in assay [1], the IC50 is at most 1000 nM.

For `O=C(NCc1ccc(F)c(F)c1)N1CCN2C(=O)OC(c3ccccc3)(c3ccccc3)C2C1` (centres unmarked) [Example 97, N-[(3,4-Difluorophenyl)methyl]-tetrahydro-3-oxo-1,1-diphenyl-3H-oxazolo[3,4-a]pyrazine-7(1H)-carboxamide], in assay [1], the IC50 is at most 1000 nM.
